The term melting point denotes the temperature of the solid-liquid transition.

SMILES strings stand for the structures.

For 35 compounds, melting point results are on record in patent US7179823B1, “5-membered n-heterocyclic compounds with hypoglycemic and hypolipidemic activity” (Takeda Pharmaceutical Company Limited, priority 1999, dated 2007).

`O=C(O)CCc1cn(Cc2ccc(OCc3cccnc3)cc2)nc1-c1ccccc1` [Example 91, 3-[3-phenyl-1-[4-(3-pyridylmethoxy)benzyl]-1H-pyrazol-4-yl]propionic acid] returned a melting point of 112 to 113 °C.

As to `Cc1oc(-c2ccco2)nc1COc1ccc(COc2nn(Cc3ccc(OCc4nc(-c5ccco5)oc4C)cc3)cc2C(=O)O)cc1` [Example 326, 1-[4-[2-(2-furyl)-5-methyl-4-oxazolylmethoxy]benzyl]-3-[4-[2-(2-furyl)-5-methyl-4-oxazolylmethoxy]benzyloxy]-1H-pyrazole-4-carboxylic acid], the melting point lay in the range of 144 to 145 °C.

The compound `Cc1oc(-c2ccco2)nc1COc1ccc(Cn2cc(CCC(=O)O)c(-c3ccc(C(F)(F)F)cc3)n2)cc1` [Example 103, 3-[1-[4-[2-(2-furyl)-5-methyl-4-oxazolylmethoxy)benzyl]-3-(4-trifluoromethylphenyl)-1H-pyrazol-4-yl]propionic acid] came in with a melting point of 92 to 93 °C.

For `CCOc1nn(Cc2ccc(OCc3cn4c(Cl)cccc4n3)cc2)cc1CCC(=O)O` [Example 225, 3-[1-[4-(5-chloroimidazo[1,2-a]pyridin-2-ylmethoxy)benzyl]-3-ethoxy-1H-pyrazol-4-yl]propionic acid], the melting point lay within 153 to 154 °C.

Regarding `O=C(O)CCc1cn(Cc2ccc(OCc3ccc4ccccc4n3)cc2)nc1-c1ccc(F)cc1` [Example 294, 3-[3-(4-fluorophenyl)-1-[4-(2-quinolylmethoxy)benzyl]-1H-pyrazol-4-yl]propionic acid], the melting point fell in the range of 178 to 179 °C.

The compound `O=C(O)CCc1cn(Cc2cc(OCc3csc(-c4ccccc4)n3)cc(OCc3csc(-c4ccccc4)n3)c2)cc1-c1ccccc1` [Example 266, 3-[1-[3,5-bis(2-phenyl-4-thiazolylmethoxy)benzyl]-4-phenyl-3-pyrrolyl]propionic acid] yielded a melting point of 78 to 79 °C.

`O=C(O)CCc1cn(Cc2ccc3cc(OCc4cccnc4)ccc3c2)cc1-c1ccccc1` [Example 58, 3-[4-phenyl-1-[6-(3-pyridylmethoxy)-2-naphthylmethyl]-3-pyrrolyl]propionic acid] returned a melting point of 158 to 159 °C.

In turn, `O=C(O)Cc1cn(Cc2ccc(OCc3ccccc3)cc2)nc1-c1ccc(F)cc1` [Example 317, [1-(4-benzyloxybenzyl)-3-(4-fluorophenyl)-1H-pyrazol-4-yl]acetic acid] returned a melting point of 194 to 195 °C.

With `CCOc1nn(Cc2ccc(OCc3cn4c(-c5ccccc5)cccc4n3)cc2)cc1CCC(=O)O` [Example 232, 3-[3-ethoxy-1-[4-(5-phenylimidazo[1,2-a]pyridin-2-ylmethoxy)benzyl]-1H-pyrazol-4-yl]propionic acid], the melting point lay within 160 to 161 °C.

In turn, `CCOc1nn(Cc2ccc(OCc3ccc4ccccc4n3)nc2)cc1CCC(=O)O` [Example 252, 3-[3-ethoxy-1-[6-(2-quinolylmethoxy)-3-pyridylmethyl]-1H-pyrazol-4-yl]propionic acid] showed a melting point of 133 to 134 °C.

Consider `CCOC(=O)/C=C/c1cn(Cc2ccc3cc(OCc4ccccc4)ccc3c2)cc1-c1ccccc1` [Example 52, ethyl(E)-3-[1-(6-benzyloxy-2-naphthylmethyl)-4-phenyl-3-pyrrolyl]propenoate], for which the melting point fell in the range of 119 to 120 °C.

In turn, `CCOc1nn(Cc2cc(OCc3ccc4ccccc4n3)no2)cc1CCC(=O)O` [Example 242, 3-[3-ethoxy-1-[3-(2-quinolylmethoxy)-5-isoxazolylmethyl]-1H-pyrazol-4-yl]propionic acid] yielded a melting point of 123 to 124 °C.

Compound `O=C(O)CCc1cn(Cc2ccc(OCc3csc(-c4ccncc4)n3)cc2)cc1-c1ccccc1` [Example 34, 3-[4-phenyl-1-[4-[2-(4-pyridyl)-4-thiazolylmethoxy)benzyl]-3-pyrrolyl]propionic acid] yielded a melting point of 149 to 150 °C.

As for `CCOc1nn(Cc2ccnc(OCc3nc(-c4ccccc4)oc3C)c2)cc1CCC(=O)O` [Example 211, 3-[3-ethoxy-1-[2-(5-methyl-2-phenyl-4-oxazolylmethoxy)-4-pyridylmethyl]-1H-pyrazol-4-yl]propionic acid], the melting point was in the range of 114 to 115 °C.

`CCOc1nn(Cc2ccc(OCc3cccc(-c4ccccc4)n3)cc2)cc1CCC(=O)O` [Example 246, 3-[3-ethoxy-1-[4-(6-phenyl-2-pyridylmethoxy)benzyl]-1H-pyrazol-4-yl]propionic acid] returned a melting point of 95 to 96 °C.

On to `O=C(O)CCc1cn(Cc2cc(OCc3ccccc3)cc(OCc3csc(-c4cnccn4)n3)c2)cc1-c1ccccc1` [Example 75, 3-[1-[3-benzyloxy-5-[2-(2-pyrazinyl)-4-thiazolylmethoxy]benzyl]-4-phenyl-3-pyrrolyl]propionic acid], for which the melting point was in the range of 109 to 110 °C.

As for `CCOC(=O)/C=C/c1cn(Cc2ccc(OCc3ccccc3)cc2)nc1-c1ccccc1` [Example 284, ethyl (E)-3-[1-(4-benzyloxybenzyl)-3-phenyl-1H-pyrazol-4-yl]propenoate], the melting point is 94 to 95 °C.

In turn, `CCOc1nn(Cc2ccnc(OCc3nc(-c4ccco4)oc3C)c2)cc1CCC(=O)O` [Example 234, 3-[3-ethoxy-1-[2-[2-(2-furyl)-5-methyl-4-oxazolylmethoxy]-4-pyridylmethyl]-1H-pyrazol-4-yl]propionic acid] came in with a melting point of 138 to 139 °C.

`O=C(O)c1cn(Cc2ccc(Oc3ccccc3)cc2)nc1OCc1ccc(Oc2ccccc2)cc1` [Example 320, 1-(4-phenoxybenzyl)-3-(4-phenoxybenzyloxy)-1H-pyrazole-4-carboxylic acid] displayed a melting point of 141 to 142 °C.

As for `Cc1nc(COc2ccc(Cn3cc(CCC(=O)O)c(-c4ccccc4)c3)cc2)cs1` [Example 42, 3-[1-[4-(2-methyl-4-thiazolylmethoxy]benzyl]-4-phenyl-3-pyrrolyl]propionic acid], the melting point lay within 113 to 114 °C.

Take `CCOc1nn(Cc2cccc(OCc3nc(-c4ccccc4)oc3C)n2)cc1CCC(=O)O` [Example 223, 3-[3-ethoxy-1-[6-(5-methyl-2-phenyl-4-oxazolylmethoxy)-2-pyridylmethyl]-1H-pyrazol-4-yl]propionic acid]: the melting point fell in the range of 144 to 145 °C.

In the case of `Cc1oc(-c2ccccc2)nc1COc1nn(Cc2ccc(Oc3ccccc3)cc2)cc1CCC(=O)O` [Example 335, 3-[3-(5-methyl-2-phenyl-4-oxazolylmethoxy)-1-(4-phenoxybenzyl)-1H-pyrazol-4-yl]propionic acid], the melting point fell in the range of 120 to 121 °C.

In turn, `CCOC(=O)c1cn(Cc2ccc(OCc3ccccc3)cc2)nc1-c1ccccc1` [Example 76, ethyl 1-(4-benzyloxybenzyl)-3-phenyl-1H-pyrazole-4-carboxylate] returned a melting point of 102 to 103 °C.

`CCOc1nn(Cc2ccnc(OCc3cn4c(Cl)cccc4n3)c2)cc1CCC(=O)O` [Example 236, 3-[1-[2-(5-chloroimidazo[1,2-a]pyridin-2-ylmethoxy)-4-pyridylmethyl]-3-ethoxy-1H-pyrazol-4-yl]propionic acid] returned a melting point of 160 to 161 °C.

With `CCOc1cc(Cn2cc(CCC(=O)O)c(-c3ccccc3)c2)cc(OCc2csc(-c3cnccn3)n2)c1` [Example 73, 3-[1-[3-ethoxy-5-[2-(2-pyrazinyl)-4-thiazolylmethoxy]benzyl]-4-phenyl-3-pyrrolyl]propionic acid], the melting point was in the range of 97 to 98 °C.

In the case of `Cc1oc(-c2ccccc2)nc1COc1ccc(Cn2cc(CCC(=O)O)c(-c3ccccc3)c2)cn1` [Example 268, 3-[1-[6-(5-methyl-2-phenyl-4-oxazolylmethoxy)-3-pyridylmethyl]-4-phenyl-3-pyrrolyl]propionic acid], the melting point lay within 123 to 124 °C.

With `CCOc1nn(Cc2ccc(OCc3ccc(-c4ccccc4)cn3)cc2)cc1CCC(=O)O` [Example 250, 3-[3-ethoxy-1-[4-(5-phenyl-2-pyridylmethoxy)benzyl]-1H-pyrazol-4-yl]propionic acid], the melting point lay in the range of 127 to 128 °C.

Consider `Cc1oc(-c2ccccc2)nc1COc1ccc(Cn2cc(CCC(=O)O)cn2)cc1` [Example 142, 3-[1-[4-(5-methyl-2-phenyl-4-oxazolylmethoxy)benzyl]-1H-pyrazol-4-yl]propionic acid], for which the melting point is 124 to 125 °C.

With `CCOc1nn(Cc2ccc(OCCn3ncc4ccccc4c3=O)cc2)cc1CCC(=O)O` [Example 220, 3-[3-ethoxy-1-[4-[2-[1-oxophthalazin-2(1H)-yl]ethoxy]benzyl]-1H-pyrazol-4-yl]propionic acid], the melting point was in the range of 152 to 153 °C.

Compound `COc1cc(COc2nn(Cc3ccc(Oc4ccccc4)cc3)cc2C(N)=O)ccc1OCc1nc(-c2ccco2)oc1C` [Example 323, 3-[4-[2-(2-furyl)-5-methyl-4-oxazolylmethoxy]-3-methoxybenzyloxy]-1-(4-phenoxybenzyl)-1H-pyrazole-4-carbamide] showed a melting point of 105 to 106 °C.

In the case of `O=C(O)CCc1cn(Cc2ccc(OCc3ccc4ccccc4n3)cc2)nc1-c1ccccc1` [Example 285, 3-[3-phenyl-1-[4-(2-quinolylmethoxy)benzyl]-1H-pyrazol-4-yl]propionic acid], the melting point lay within 147 to 148 °C.

Consider `CCOC(=O)c1cn(Cc2ccc(Oc3ccccc3)cc2)nc1OCc1ccc(OCc2nc(-c3ccco3)oc2C)c(OC)c1` [Example 321, ethyl 3-[4-[2-(2-furyl)-5-methyl-4-oxazolylmethoxy]-3-methoxybenzyloxy]-1-(4-phenoxybenzyl)-1H-pyrazole-4-carboxylate], for which the melting point lay within 98 to 99 °C.

`O=C(O)CCc1cn(Cc2ccc(OCc3ccc4ccccc4n3)nc2)nc1-c1ccccc1` [Example 298, 3-[3-phenyl-1-(6-(2-quinolylmethoxy)-3-pyridylmethyl]-1H-pyrazol-4-yl]propionic acid] registered a melting point of 166 to 167 °C.

In turn, `O=C(O)CCc1cn(Cc2ccc(OCc3cccs3)cc2)cc1-c1ccccc1` [Example 20, 3-[4-phenyl-1-[4-(2-thienylmethoxy)benzyl]-3-pyrrolyl]propionic acid] showed a melting point of 127 to 128 °C.

`Cc1oc(-c2ccccc2)nc1COc1ccc(Cn2cc(CCC(=O)O)c(-c3ccccc3)n2)nc1` [Example 306, 3-[1-[5-(5-methyl-2-phenyl-4-oxazolylmethoxy)-2-pyridylmethyl]-3-phenyl-1H-pyrazol-4-yl]propionic acid] yielded a melting point of 175 to 176 °C.
